Results on four molecules are retold here after article PMC5206724, “Insensitivity to pain induced by a potent selective closed-state Nav1.7 inhibitor” (Scientific Reports, 2017).

Some results are limits rather than exact numbers.

Series [1] addresses T1, hNav1.7 (Homo sapiens, UniProt Q15858).
T1 construct: host or cells: HEK293
Put plainly: cell-based. The note with it: patch clamp method not given; read-out: pIC50 Nav1.7 (converted). A general note: The patch-clamp technique gives a direct electrical read-out from membranes.

Series [2] has as its target hNav1.6 (Homo sapiens, UniProt Q9UQD0). Nature of the series: cell-based. The note with it: patch clamp method not given; read-out: pIC50 Nav1.6 (converted).
Series [3] addresses hNav1.4 (Homo sapiens, UniProt P35499). Nature of the series: cell-based. As to conditions: patch clamp method not given; read-out: pIC50 Nav1.4 (converted).
For series [4], the system named is TTX-resistant sodium current, rat DRG cells. Nature of the series: Rat DRG patch clamp, TTX-resistant current. It counts as cell-based.
The subject of series [5] is TTX-sensitive current, rat DRG cells. In kind it is cell-based.
The test system of series [6] is mixed sodium current, rat DRG cells. In kind it is cell-based.
The test system of series [7] is formalin-induced flinching, morphine-tolerant rats. The note with it: rat, in vivo; cited from earlier work.
For series [8], the system named is formalin-induced flinching, rat. As to conditions: in vivo.
The test system of series [9] is formalin-induced flinching, morphine-tolerant rats. The note with it: rat, in vivo. Here is the method:
A soft metal band was glued to the plantar side of one hind paw and rats were allowed to acclimate in the test chamber for 30 min. […] The incidence of nociceptive behavior - flinching and shaking of the injected paw was counted by an automated formalin apparatus (University Anesthesia Research and Development Group, Department of Anesthesiology, University of California, San Diego, La Jolla, CA). The number of paw flinches was tallied by minute over 60 min[60]. Total flinches in phase I (0~10 min) and phase II (11~60 min) were calculated.
Male Sprague-Dawley (CD) rats (Charles River, San Diego) ~250–300 g were catheterized intrathecally as described above. The non-indwelling end (PE60) of the catheter was connected to the flow modulator of an osmotic pump (Alzet 2001, 1 μl/h) loaded with morphine or saline vehicle, which underwent priming at 37 °C overnight in sterile saline. The osmotic pump was implanted subcutaneously above the scapula. To induce morphine tolerance, morphine was infused intrathecally by the osmotic pump at a dose of 15 μg/h for 7 days[61]. On day 7 the pumps were extracted and the wounds were closed with the intrathecal catheters left in place. Catheters were flushed with 20 μL of saline.

For series [10] the following is noted: rat, in vivo.
The conditions of series [11]: rat, in vivo, iv; cited from earlier work.

hNav1.4, sequence (P35499 whole entry): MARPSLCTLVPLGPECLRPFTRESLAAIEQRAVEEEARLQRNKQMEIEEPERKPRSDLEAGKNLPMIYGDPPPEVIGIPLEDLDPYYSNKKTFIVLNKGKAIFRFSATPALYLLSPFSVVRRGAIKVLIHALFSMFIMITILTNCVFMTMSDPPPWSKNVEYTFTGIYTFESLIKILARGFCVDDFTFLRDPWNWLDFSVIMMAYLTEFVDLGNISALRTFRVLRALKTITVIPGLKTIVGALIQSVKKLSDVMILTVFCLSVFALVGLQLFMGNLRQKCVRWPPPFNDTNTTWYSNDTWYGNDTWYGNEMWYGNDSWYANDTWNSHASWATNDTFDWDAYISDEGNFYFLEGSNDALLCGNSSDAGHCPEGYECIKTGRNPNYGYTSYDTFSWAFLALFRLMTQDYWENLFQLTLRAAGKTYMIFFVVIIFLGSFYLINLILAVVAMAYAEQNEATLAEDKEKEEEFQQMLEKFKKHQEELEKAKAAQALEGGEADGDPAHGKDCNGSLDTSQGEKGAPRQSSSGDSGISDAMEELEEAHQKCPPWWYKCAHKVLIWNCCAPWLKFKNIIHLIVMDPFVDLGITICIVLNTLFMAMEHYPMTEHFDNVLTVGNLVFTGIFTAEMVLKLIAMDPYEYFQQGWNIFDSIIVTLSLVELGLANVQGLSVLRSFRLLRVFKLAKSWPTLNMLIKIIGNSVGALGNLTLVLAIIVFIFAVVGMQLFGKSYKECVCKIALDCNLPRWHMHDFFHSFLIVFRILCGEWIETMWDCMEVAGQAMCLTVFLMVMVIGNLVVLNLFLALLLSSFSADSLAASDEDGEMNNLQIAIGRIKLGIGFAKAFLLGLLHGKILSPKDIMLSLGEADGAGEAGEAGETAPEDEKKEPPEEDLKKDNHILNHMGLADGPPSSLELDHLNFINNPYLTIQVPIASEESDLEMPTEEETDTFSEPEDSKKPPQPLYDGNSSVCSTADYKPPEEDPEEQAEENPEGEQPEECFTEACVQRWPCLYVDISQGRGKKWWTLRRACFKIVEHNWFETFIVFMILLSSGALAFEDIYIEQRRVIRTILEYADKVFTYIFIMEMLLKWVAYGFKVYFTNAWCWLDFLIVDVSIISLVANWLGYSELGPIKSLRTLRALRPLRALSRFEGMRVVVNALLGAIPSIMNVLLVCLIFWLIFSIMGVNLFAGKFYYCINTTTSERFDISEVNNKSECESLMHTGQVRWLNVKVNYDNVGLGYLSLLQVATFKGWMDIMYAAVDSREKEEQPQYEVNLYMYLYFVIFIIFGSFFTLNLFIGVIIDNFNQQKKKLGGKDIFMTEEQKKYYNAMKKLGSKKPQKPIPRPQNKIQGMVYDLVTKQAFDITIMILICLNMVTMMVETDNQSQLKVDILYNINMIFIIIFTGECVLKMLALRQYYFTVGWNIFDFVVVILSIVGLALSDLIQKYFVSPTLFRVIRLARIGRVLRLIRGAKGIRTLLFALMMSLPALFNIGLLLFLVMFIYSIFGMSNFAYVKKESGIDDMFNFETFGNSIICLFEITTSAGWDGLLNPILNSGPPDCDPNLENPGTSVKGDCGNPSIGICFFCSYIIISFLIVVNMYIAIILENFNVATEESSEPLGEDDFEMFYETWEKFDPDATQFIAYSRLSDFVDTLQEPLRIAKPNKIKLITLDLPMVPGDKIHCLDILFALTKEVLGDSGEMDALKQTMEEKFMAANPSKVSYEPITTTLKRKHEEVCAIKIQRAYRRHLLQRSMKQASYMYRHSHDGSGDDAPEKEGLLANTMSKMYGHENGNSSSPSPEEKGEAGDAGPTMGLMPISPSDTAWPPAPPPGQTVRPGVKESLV
T1 sequence (Q15858 whole entry): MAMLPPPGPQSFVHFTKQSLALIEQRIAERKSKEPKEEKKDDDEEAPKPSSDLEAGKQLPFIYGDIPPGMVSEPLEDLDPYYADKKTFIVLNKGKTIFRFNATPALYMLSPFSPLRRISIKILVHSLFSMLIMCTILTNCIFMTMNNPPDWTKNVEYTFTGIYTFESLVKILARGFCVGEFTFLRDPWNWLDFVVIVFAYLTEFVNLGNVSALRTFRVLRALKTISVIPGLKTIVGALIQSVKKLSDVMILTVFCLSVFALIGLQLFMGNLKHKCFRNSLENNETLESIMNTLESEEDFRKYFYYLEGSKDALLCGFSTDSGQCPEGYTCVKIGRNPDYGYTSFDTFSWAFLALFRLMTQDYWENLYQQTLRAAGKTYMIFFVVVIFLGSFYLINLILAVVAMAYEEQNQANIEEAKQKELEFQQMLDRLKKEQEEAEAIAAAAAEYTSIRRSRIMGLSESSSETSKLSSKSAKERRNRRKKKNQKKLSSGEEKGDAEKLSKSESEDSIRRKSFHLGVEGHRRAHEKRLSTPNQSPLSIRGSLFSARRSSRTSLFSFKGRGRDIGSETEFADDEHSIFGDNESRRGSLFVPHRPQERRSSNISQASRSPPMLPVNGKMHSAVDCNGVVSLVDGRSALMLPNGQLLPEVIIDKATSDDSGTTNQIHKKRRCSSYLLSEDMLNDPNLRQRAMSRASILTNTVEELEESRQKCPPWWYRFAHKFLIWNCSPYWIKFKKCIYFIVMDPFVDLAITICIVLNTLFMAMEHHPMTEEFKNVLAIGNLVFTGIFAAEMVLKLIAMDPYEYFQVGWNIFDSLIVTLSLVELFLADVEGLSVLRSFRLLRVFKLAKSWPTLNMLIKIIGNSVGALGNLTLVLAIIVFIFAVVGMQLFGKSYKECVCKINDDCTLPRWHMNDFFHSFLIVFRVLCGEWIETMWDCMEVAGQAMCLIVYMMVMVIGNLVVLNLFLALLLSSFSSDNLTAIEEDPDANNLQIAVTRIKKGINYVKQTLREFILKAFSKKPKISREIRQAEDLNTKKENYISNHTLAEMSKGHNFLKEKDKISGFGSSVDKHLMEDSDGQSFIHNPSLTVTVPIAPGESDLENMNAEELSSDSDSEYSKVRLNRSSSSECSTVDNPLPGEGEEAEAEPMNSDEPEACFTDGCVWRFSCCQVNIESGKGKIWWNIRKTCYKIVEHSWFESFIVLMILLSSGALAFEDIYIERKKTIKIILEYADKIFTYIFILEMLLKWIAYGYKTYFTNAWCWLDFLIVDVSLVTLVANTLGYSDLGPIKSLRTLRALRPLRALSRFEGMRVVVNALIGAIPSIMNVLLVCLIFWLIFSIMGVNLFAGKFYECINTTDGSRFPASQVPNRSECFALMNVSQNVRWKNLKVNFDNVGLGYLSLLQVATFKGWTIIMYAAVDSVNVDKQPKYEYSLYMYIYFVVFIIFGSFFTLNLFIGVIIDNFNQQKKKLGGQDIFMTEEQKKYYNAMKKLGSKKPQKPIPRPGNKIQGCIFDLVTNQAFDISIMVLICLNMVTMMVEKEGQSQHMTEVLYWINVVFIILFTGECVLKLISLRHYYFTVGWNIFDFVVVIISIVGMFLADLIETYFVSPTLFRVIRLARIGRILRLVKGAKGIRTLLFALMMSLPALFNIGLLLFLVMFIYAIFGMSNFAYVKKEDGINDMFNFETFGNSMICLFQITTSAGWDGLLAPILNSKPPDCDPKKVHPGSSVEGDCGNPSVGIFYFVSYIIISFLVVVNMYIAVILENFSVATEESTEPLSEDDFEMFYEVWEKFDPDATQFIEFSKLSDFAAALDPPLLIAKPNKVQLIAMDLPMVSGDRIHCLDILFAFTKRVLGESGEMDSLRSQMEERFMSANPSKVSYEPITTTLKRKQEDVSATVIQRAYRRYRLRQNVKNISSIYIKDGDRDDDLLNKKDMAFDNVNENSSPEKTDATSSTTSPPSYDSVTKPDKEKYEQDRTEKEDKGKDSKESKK

As to `CSCC[C@@H]1NC(=O)CNC(=O)[C@H](CCC(=O)O)NC(=O)[C@@H]2CSSC[C@H](NC(=O)[C@@H](N)Cc3ccc(O)cc3)C(=O)N[C@@H](CCC(N)=O)C(=O)N[C@@H](CCCCN)C(=O)N[C@@H](Cc3c[nH]c4ccccc34)C(=O)N[C@@H](CCSC)C(=O)N[C@@H](CCC(N)=O)C(=O)N[C@@H]([C@@H](C)O)C(=O)N[C@H]3CSSC[C@H](NC(=O)[C@H](C(C)C)NC1=O)C(=O)N[C@@H](CCCNC(=N)N)C(=O)N[C@@H](CC(C)C)C(=O)N[C@@H](Cc1c[nH]c4ccccc14)C(=O)N[C@H](C(=O)N[C@@H](CCCCN)C(=O)N[C@@H](CCCCN)C(=O)N[C@@H](CCCCN)C(=O)N[C@@H](CC(C)C)C(=O)N[C@@H](CC(C)C)C(=O)O)CSSC[C@H](NC(=O)[C@H](CCCCN)NC(=O)[C@H](CCCNC(=N)N)NC(=O)[C@H](CCC(=O)O)NC(=O)[C@H](CO)NC(=O)[C@H](CC(=O)O)NC3=O)C(=O)N2` [ProTX-II W7Q, W30L], the IC50 in [1] is 0.01 µM; in series [2], 2 µM; in series [3], 3.98 µM.

For the molecule `NC1=N[C@H](O)[C@H]2[C@H]3O[C@]4(O)O[C@@H]([C@@H](O)[C@@]2(N1)[C@@H]4O)[C@]3(O)CO` [TTX, tetrodotoxin], the “block, predominantly TTX-resistant cells” value in series [4] is on record as under 10%. In [5], the “block, predominantly TTX-sensitive cells” value was ~ 100%. The “block, mixed cells” value in series [6] is recorded as 29–68%.

Regarding `CN1CC[C@]23c4c5ccc(O)c4O[C@H]2[C@@H](O)C=C[C@H]3[C@H]1C5` [morphine], the “block of phase 2 during morphine infusion, day 2” value in series [7] is reported as “significant block of phase 2 on day 2”. The “pED50 formalin (phase II)” value in series [8] is 5.4 ± 0.22 −log g. Moreover, in [9], the “efficacy during morphine infusion, day 7” value is recorded as “loses its efficacy by day 7” and the “phase II formalin flinching, morphine-tolerant rats” value was “did not significantly reduce phase II formalin flinching”.

In the case of ziconotide [reference compound], in [10], the behavioral side effects result is “whole body shakes, increased muscle tone and “serpentine” tail movement”; the scratching behavior entry is given as “did not induce scratching behavior”. In addition, in [11], the “histamine release and hemodynamic changes” value was “induce histamine release and associated hemodynamic changes”. Moreover, the “pED50 formalin (phase II)” value in [8] is listed as 7.1 ± 0.18 −log g.
